Experimental data: publication PMC7136958, “Targeting the pregnane X receptor using microbial metabolite mimicry” (EMBO Molecular Medicine, 2020)
Several values for one entry are separate records, joined by “and”; a condition that tells them apart may be missing. Equal entries are not always repeated.

Columns and labels:
[1] = tested on: RXR; assay: [11,12-3H(N)] 9-cis retinoic acid binding competition assay (RXR ligand binding), rat liver nuclear extracts; conditions: 39.94 nM compound, 0.66 nM radioligand
Description: 8), 50 mM NaCl, 0.1 mM EDTA, 1 mM DTT, 1 mM PMSF, and 1% DMSO. The substrate is 3H-CoA (acetyl coenzyme A) and the incubation time is for 1 h at 30° C. The radioactivity in mixture is detected on washed filter paper using a scintillation counter. The Histone Deacetylase (HDAC) fluorescent activity assay (HDAC1-3) is based on the using 2X purified human enzyme mixed with the reaction buffer (50 mM Tris-HCl pH 8, 137 mM NaCl, 2.7 mM KCl, and 1 mM MgCl2, 1 mg/mL fresh BSA and 1% fresh DMSO) and then compounds (in 100% DMSO) are titrated in using Acoustic Technology.
The 2X HDAC substrate is a fluorogenic acetylated peptide from p53 (residues 379 - 38 2 RHKK(Ac)AMC) which is mixed in with the enzyme-compound complex and incubated for 1-2 h at 30 °C. In the development step, a proprietary developer with trichostatin A (or TMP269) is added to stop the reaction and to generate fluorescent color which is read using an EnVision Multilabel Plate Reader (Perkin Elmer) (Ex 360 nm/ Em 460 nm). For all enzyme activity assays, the percentage of enzyme activity (relative to DMSO controls) and IC50 values were calculated using GraphPad Prism 4 program (sigmoidal dose response equations).
Isolation of cell nuclei. Rat liver nuclear fraction was prepared from rat livers by the procedure established and optimized previously 19. […]

[2] = target: T1, SIRT1 (Homo sapiens, UniProt Q96EB6); assay: Sirtuin (SIRT1) assay; format: biochemical; conditions: substrate Acetylated peptide, replicates
T1 construct: full -length N-terminal His-tag protein (MW 83.2 kDa); His-tag (N); purchased Reaction Biology Corp; host or cells: E. coli
T1 sequence (Q96EB6 whole entry): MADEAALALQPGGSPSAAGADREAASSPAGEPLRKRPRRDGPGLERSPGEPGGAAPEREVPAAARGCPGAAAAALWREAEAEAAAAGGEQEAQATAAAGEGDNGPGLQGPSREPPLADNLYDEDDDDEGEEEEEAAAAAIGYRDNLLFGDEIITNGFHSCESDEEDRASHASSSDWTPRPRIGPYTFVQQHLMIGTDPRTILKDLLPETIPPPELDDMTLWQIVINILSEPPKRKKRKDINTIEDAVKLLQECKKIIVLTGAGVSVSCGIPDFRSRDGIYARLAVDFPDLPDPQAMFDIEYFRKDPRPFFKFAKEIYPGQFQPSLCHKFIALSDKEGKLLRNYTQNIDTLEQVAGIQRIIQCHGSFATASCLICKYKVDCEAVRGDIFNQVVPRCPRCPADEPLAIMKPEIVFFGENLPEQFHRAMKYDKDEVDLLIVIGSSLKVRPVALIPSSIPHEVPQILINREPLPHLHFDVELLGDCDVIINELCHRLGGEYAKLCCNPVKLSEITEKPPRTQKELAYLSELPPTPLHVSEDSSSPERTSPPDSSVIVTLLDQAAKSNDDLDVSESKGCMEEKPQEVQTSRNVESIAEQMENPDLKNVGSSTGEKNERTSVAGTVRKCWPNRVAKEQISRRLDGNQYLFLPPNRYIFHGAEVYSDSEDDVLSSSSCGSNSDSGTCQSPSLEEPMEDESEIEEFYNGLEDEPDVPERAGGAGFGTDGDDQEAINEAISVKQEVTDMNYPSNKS
Description: Software Tool and reprinted with permission from KINOME scan®, a division of DiscoveRx […]
The following […] assays (HDAC, SIRT1, PRMT1, PARP1, p300, pCAF) were performed by Reaction Biology Corp. FKK6 was screened at a single concentration of 10 μM in duplicate in two separate experiments. The appropriate controls for the individual assays are published. The overall […]
enzyme activity in the assay is reported as a % activity in DMSO control wells. Control IC50 […]
Briefly, for the Sirtuin (SIRT1) assay, human SIRT1 (GenBank
Accession No. NM012238) full -length N-terminal His-tag protein (MW 83.2 kDa) was purified after expression in E. coli. The reaction buffer was freshly prepared and constituted 50 mM Tris-HC l ( p H 8), 137 mM NaCl, 2.7 mM KCl, 1 mM MgCl2, and just before use, 1 mg/mL BSA and 1% DMSO was added. The substrate was a fluorogenic acetylated peptide of p53 residues 379-382 (RHKK (Ac)- AM C) . In th e multi-well format, the 2X enzyme was mixed with the reaction buffer followed by compound (in 100% DMSO) titration via Acoustic technology (Echo550; LabCyte Inc, Sunnyvale, CA) in the nanoliter range. The mixture was spun down and 2X substrate (including NAD+) was added to initiate the reaction at 30° C at 2h under seal. […] Fluorescence kinetic measurements were conducted for 1.5 h in 15 min intervals using Envision (Ex 360nm/Em 460nm). […]

Question: How did the “displacement of [3H]-9-cis-retinoic acid” value [1] turn out when `O=S(=O)(c1ccccc1)n1c(C(O)c2ccncc2)cc2ccccc21` (racemic) [FKK1] was run?
Answer: The value was “significant displacement”.

Question: For `C#CCC(O)(c1ccncc1)c1cc2ccccc2n1S(=O)(=O)c1ccccc1` (stereo not drawn) [FKK6], which “% Enzyme Activity to DMSO controls” value ([2]; 10 μM) is on record?
Answer: Its value is 100.03% and 99.84% and 94.47%.

Question: What about the remaining activity at 10 µM ([2]; read-out: % Enzyme Activity to DMSO controls) of the same compound?
Answer: The remaining activity at 10 µM was 100%.
